Measurements: patent US20170290820A1, “METHODS AND COMPOSITIONS FOR TREATING BETA-THALASSEMIA AND SICKLE CELL DISEASE” (Academia Sinica, priority 2013, published 2017)

What was measured:
histone H4 = histone H4 acetylation by western blot; type: cell-based, human; settings: FIG. 6; for global acetylation status of histone H4 (total acH4): at IC50, 3 days
Text: FIG. 6 is a graph showing the acetylation status of histone H4 in primary erythroid cells treating with HU, NaB, S51021 or SS-2394. […] Total histones were extracted by histone extraction buffer. Thirty microgram of histone extract was used for western blot analysis and immunobloted with antibody against histone H4 or acetylated histone H4. Lower panel: The signal intensity was quantified by an image-analyzing software. The intensity of mock control was set as 1. Data are shown as the mean±SEM, N=4.
After 3 days of compound treatment, total protein or histone of the drug-treated cells was extracted. Histone was extracted by histone extraction buffer (10 mM HEPES, 1.5 mM MgCl2, 10 mM KCl, 0.5 mM DTT, 1.5 mM PMSF and 0.2 N HCl) at 4° C. overnight then centrifuged at 13,000 rpm for 5 minutes and collected the supernatant. Thirty microgram of histone extracts were separated in 15% SDS-PAGE and blotted onto PVDF membrane. After blocking with 5% non-fat milk in TBST, the membrane was then incubated with primary antibody against total histone H4 or total acetyl histone H4 at 4° C. overnight. Total protein was extracted by modified RIPA (50 mM Tris-HCl pH7.8, 150 mM NaCl, 1% NP-40, 0.5% sodium deoxycholate, 0.1% SDS, 1 mM EGTA, 5 mM EDTA, 10 mM NaF, 1 mM NaV3O4 and 1× complete, EDTA-free Protease Inhibitor Cocktail). Thirty microgram of total protein extracts were separate by 10% SDS-PAGE and blotted onto PVDF membrane. After blocking with 5% non-fat milk in TBST, the membrane was incubated with primary antibody against BCL11A, p38, p-p38, γ-globin or β-actin at 4° C. overnight. […]
Several HDACi, such as NaB, apicidin, and TSA, have been reported to function as HbF-inducing agents. […] To realize whether the epigenetic modification of histone H4 is manipulated by S51021 or SS-2394 treatment, primary human adult erythroid cells were treated with S51021, SS-2394, HU, or NaB for 3 days, and the acetylation status of cellular histone H4 was then analyzed (FIG. 6).

[1] = solubility in DMSO and H2O; type: physicochemical; settings: water; H2O; read-out: solubility H2O
[2] = system: primary human erythroid cells; assay: AlamarBlue cell viability / proliferation assay; settings: Table 3; primary human erythroid cells, 3 days, proliferation reduced by 50%
γ globin gene = γ globin gene induction by relative quantitative RT-PCR; type: cell-based, human; settings: for γ globin induction (IC50): Table 3, γ globin mRNA induction fold at the compound's IC50, 3 days
Experimental: (§1) After 3 days of drug-treatment, the total RNA was extracted by RNA Spin mini kit (Ge-Healthcare) and reverse-transcription was performed by using superscript II (Invitrogen) followed the manufactors instruction. Quantitative PCR was performed on LightCycler with using STBR green master mix followed the manufactors instruction (Roche). The absolute quantitative RT-PCR was calculated by the standard curve with supplying a known copy number of plasmids. The relative quantitative RT-PCR was normalized to the expression levels of the β-actin and compared to the mock control.
To search for new agents, which are capable of inducing the expression of γ globin, a series of naphthalimide derivatives with various substituent(s) on the naphthalene ring and the heterocyclic N-atom (A1-A14, B1-B4, C1-C5, D1, and E1-E3, FIG. 2) were synthesized. These derivatives were subjected to evaluating the γ globin induction abilities in differentiated peripheral blood mononuclear cells (PBMCs). The PBMCs isolated from the peripheral blood of donors were expanded and differentiated for a total of 14 days in a two-phase liquid culture. The resulted primary erythoid cells were then treated with different dosages of naphthalimide derivatives individually for another 3 days. The expression levels of the endogenous γ globin gene were estimated by relative quantitative RT-PCR and the proliferation rates of these cells were examined by AlamarBlue cell viability assay. […]; 2-4.5-folds induction of the γ globin gene expression in the compounds-treated cells (FIG. 3).

BCL11A [3] = assay: BCL11A mRNA level by relative quantitative RT-PCR; type: cell-based, human; settings: FIG. 4A; at IC50, 3 days, relative to mock
Experimental: FIGS. 4A-4D are graphs showing the expression profiles of the γ globin gene and HbF-related regulators after compounds treatment in the primary human erthroid cells. […] Data are presented as the relative expression level in mean±SEM, N=8. […] Upper panel: For detection of the induction level of γ globin, fifty microgram of total cell lysate was analyzed by western blot analysis using antibody against γ globin, or β-actin. Lower panel: The signal intensity was quantified by an image-analyzing software. The intensity of γ globin expression levels of mock control was set as 1. Data are shown as the mean±SEM, N=5. […] Lower panel: The signal was quantified by an image-analyzing software. […] Total RNA was extracted, and the expression level of γ globin gene was analyzed by relative quantitative RT-PCR. […]
as §1, with “control. […]” for “control.”

BCL11A [4] = assay: BCL11A protein by western blot; type: cell-based, human; settings: FIG. 4C, at IC50, 3 days
Experimental: FIGS. 4A-4D are graphs showing the expression profiles of the γ globin gene and HbF-related regulators after compounds treatment in the primary human erthroid cells. […] Data are presented as the relative expression level in mean±SEM, N=8. […] Upper panel: For detection of the induction level of γ globin, fifty microgram of total cell lysate was analyzed by western blot analysis using antibody against γ globin, or β-actin. Lower panel: The signal intensity was quantified by an image-analyzing software. The intensity of γ globin expression levels of mock control was set as 1. Data are shown as the mean±SEM, N=5. […] Upper panel: For detection of the expression level of BCL11A, thirty microgram of total protein was separated by SDS-PAGE electrophoresis, transferred to PVDF membrane, and immunobloted with antibody against BCL11A and β-actin. Lower panel: The signal was quantified by an image-analyzing software. The intensity of the mock control BCL11A levels were set as 1. Data are shown as the mean±SEM, N=5. FIG. 4D is a graph showing that the HU-nonresponding primary human erythroid cells were treated with HU (145.9 μM), NaB (221.6 μM), S51021 (21.8 μM) or SS-2394 (2.3 μM) for 3 days. Total RNA was extracted, and the expression level of γ globin gene was analyzed by relative quantitative RT-PCR. Data are shown as the mean±SEM, N=3. […]

Row | Structure (SMILES) | histone deacetylase inhibitor or not (conclusion from acH4) (histone H4) | global acetylation status of histone H4 (total acH4) (histone H4) | solubility [1] [mM] | IC50 [2] [µM] | γ globin induction (IC50) (γ globin gene) [fold] | EC (μM) induction of HU IC50 (2.3 fold) (γ globin gene; concentration inducing γ globin gene expression 2.3-fold, primary human erythroid cells) [µM] | expression level of BCL11A mRNA (BCL11A [3]) [folds] | BCL11A protein (BCL11A [4]) | expression level of γ globin mRNA (γ globin gene; FIG. 4A, at IC50, 3 days, relative to mock)
1 | NC(=O)NO [HU, hydroxyurea] | not histone deacetylase inhibitors | not dramatically alternated | > 100 | 146 | 2.3 | 145.9 |  |  | 
2 | CCCC(=O)[O-].[Na+] [NaB, sodium butyrate] |  | significantly enhanced |  | 222 | 1.3 |  | 0.6 | significant reduction | not
